The test system of one assay is Gli-Luc/MEF cells (Smo). Put plainly: Gli-Luc/MEF assay (Shh-stimulated luciferase reporter under the Gli response element). The note with it: Mus musculus, MEF, 48 h. It is filed as cell-based, mouse. In outline: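 IC50 derived from luminescence (Bright-Glo) after 48 h at 37° C, 5% CO2, with compound at […] (3-fold dilutions) added together with mouse Shh at 2 μg/mL final. Cells: MEFs from Gli-Luc transgenic mice.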

In assay [1] the target is T1, human Smo (amino acids 181-787) (Homo sapiens, UniProt Q99835).
T1 construct: expressed in transfected cells; membrane preparation
The experiment in a line: Smo radioligand competition binding assay (displacement of 3H-PF-03451358 from HEK293 membranes). The note with it: for inhibition at 0.05 µM: 0.05 μM test compound, displacement of 3H-PF-03451358, read-out: SMO % inh. @ 0.05 μM; for IC50: radioligand competition binding. The gist of the method: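 Displacement of 3 nM tritiated PF-03451358 measured by filtration and scintillation counting after 2 h at room temperature, using 40 μg/well HEK293 membranes bearing cell-surface Smo 181-787, pH 7.5 buffer. Specific binding defined against 30 μM unlabelled ligand; IC50 via variable-slope sigmoidal fit.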
For orientation: Loss of bound radioactivity is the signal in a displacement assay; it reports binding, not function.

In patent US20120157471A1, “BENZIMIDAZOLE DERIVATIVES” (PFIZER INC., priority 2009, published 2012) one finds IC50 and inhibition data, which are given here for 26 compounds.

T1 sequence (Q99835 181-787): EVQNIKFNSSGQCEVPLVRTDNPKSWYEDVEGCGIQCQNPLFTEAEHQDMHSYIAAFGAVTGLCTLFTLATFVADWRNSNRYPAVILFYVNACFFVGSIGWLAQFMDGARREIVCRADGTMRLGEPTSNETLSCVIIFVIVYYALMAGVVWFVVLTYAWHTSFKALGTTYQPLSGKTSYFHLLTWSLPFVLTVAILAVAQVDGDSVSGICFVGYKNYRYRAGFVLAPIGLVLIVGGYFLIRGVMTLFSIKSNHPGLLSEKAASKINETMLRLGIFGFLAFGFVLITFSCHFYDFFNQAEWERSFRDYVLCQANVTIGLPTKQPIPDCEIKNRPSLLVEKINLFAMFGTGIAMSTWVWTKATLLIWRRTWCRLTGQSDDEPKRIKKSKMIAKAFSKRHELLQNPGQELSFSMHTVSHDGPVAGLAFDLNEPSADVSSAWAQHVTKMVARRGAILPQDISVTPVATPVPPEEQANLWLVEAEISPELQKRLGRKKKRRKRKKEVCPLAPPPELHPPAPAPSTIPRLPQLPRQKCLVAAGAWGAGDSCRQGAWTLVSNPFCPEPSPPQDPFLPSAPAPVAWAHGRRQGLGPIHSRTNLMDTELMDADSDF

As to `Cc1nc(CC2CN(c3cc(-c4nc5ccccc5n4C)c(Cl)cn3)CCO2)no1` (stereo not shown) [Example A-52, 2-(5-chloro-2-{2-[(5-methyl-1,2,4-oxadiazol-3-yl)methyl]morpholin-4-yl}pyridin-4-yl)-1-methyl-1H-benzimidazole], the IC50 (in general, the point on the concentration scale where inhibition reaches its midpoint) in the assay with Gli-Luc/MEF cells (Smo) turned out to be 13 nM. For the same compound, in assay [1], the inhibition at 0.05 µM is 99% and the half-inhibitory concentration (IC50) was found to be 13 nM.
On to `Cc1cnc(N2CCC(CS(C)(=O)=O)CC2)cc1-c1nc2ccccc2n1C` [Example E-2, 1-methyl-2-(5-methyl-2-{4-[(methylsulfonyl)methyl]piperidin-1-yl}pyridin-4-yl)-1H-benzimidazole], for which the figures for the IC50 (with Gli-Luc/MEF cells (Smo); in assay [1]) were 20.9 nM and 18 nM, respectively. Further, the inhibition at 0.05 µM in assay [1] was 99%.
For the compound `CCNC(=O)NC1CCN(c2cc(-c3nc4ccccc4n3C)c(F)cn2)CC1` [Example D-8, 1-ethyl-3-{1-[5-fluoro-4-{1-methyl-1H-benzimidazol-2-yl)pyridin-2-yl]piperidin-4-yl}urea], in the assay on Gli-Luc/MEF cells (Smo), half-maximal inhibition (IC50) required 6 nM. In assay [1], the inhibition at 0.05 µM was 95% and the IC50 came out at 6 nM.
Regarding `Cn1c(-c2cc(N3[C@@H]4CC[C@H]3C[C@@H](NS(C)(=O)=O)C4)ncc2Cl)nc2ccccc21` [Example A-193, N-{(3-endo)-8-[5-chloro-4-(1-methyl-1H-benzimidazol-2-yl)pyridin-2-yl]-8-azabicyclo[3.2.1]oct-3-yl}methanesulfonamide], the IC50 in the assay with Gli-Luc/MEF cells (Smo) was 2.5 nM; in assay [1] it was 13 nM. Moreover, the inhibition at 0.05 µM in assay [1] was 103%.
For the compound `CC(=O)N1CCN(c2ncc(Cl)c(-c3nc4ccccc4n3C)n2)CC1` [Example C-1, 2-[2-(4-Acetylpiperazin-1-yl)-5-chloropyrimidin-4-yl]-1-methyl-1H-benzimidazole], the IC50 in the assay with Gli-Luc/MEF cells (Smo) is 7 nM. Further, in assay [1], the inhibition at 0.05 µM is 96% and the IC50 came out at 12 nM.
On to `Cn1c(-c2cc(N3CCC(OC(N)=O)CC3)ncc2Cl)nc2ccccc21` [Example A-203, 1-[5-chloro-4-(1-methyl-1H-benzimidazol-2-yl)pyridin-2-yl]piperidin-4-yl carbamate], for which half-maximal inhibition in the assay with Gli-Luc/MEF cells (Smo) (IC50) was put at 12.5 nM. In assay [1], the inhibition at 0.05 µM amounted to 94% and the IC50 amounted to 11 nM.
In the case of `Cn1c(-c2nc(N3CCN(C(=O)CCO)CC3)ncc2Cl)nc2ccccc21` [Example C-17, 3-{4-[5-chloro-4-(1-methyl-1H-benzimidazol-2-yl)pyrimidin-2-yl]piperazin-1-yl}-3-oxopropan-1-ol], in the assay on Gli-Luc/MEF cells (Smo), 17.2 nM corresponded to half-maximal inhibition (IC50). In assay [1], the inhibition at 0.05 µM worked out at 98%.
In the case of `Cn1c(-c2cc(NCCO)ncc2Cl)nc2ccccc21` [Example A-172, 2-{[5-chloro-4-(1-methyl-1H-benzimidazol-2-yl)pyridin-2-yl]amino}ethanol], the IC50 in the assay with Gli-Luc/MEF cells (Smo) is 52 nM; in assay [1], 107 nM. In addition, the inhibition at 0.05 µM in assay [1] stood at 80%.
As for `Cn1c(-c2nc(N3CCC(NS(C)(=O)=O)CC3)ccc2Cl)nc2ccccc21` [Example B-12, N-{1-[5-chloro-6-(1-methyl-1H-benzimidazol-2-yl)pyridin-2-yl]piperidin-4-yl}methanesulfonamide], the IC50 with Gli-Luc/MEF cells (Smo) was found to be 1 nM. In assay [1], the inhibition at 0.05 µM was 100% and the IC50 is 10 nM.
`Cn1c(-c2cc(N3CCn4cnnc4C3)ncc2Cl)nc2ccccc21` [Example A-109, 7-[5-chloro-4-(1-methyl-1H-benzimidazol-2-yl)pyridin-2-yl]-5,6,7,8-tetrahydro[1,2,4]triazolo[4,3-a]pyrazine]: the figures for the IC50 (in the assay on Gli-Luc/MEF cells (Smo); in assay [1]) were 140 nM and 129 nM, respectively. Also, the inhibition at 0.05 µM in assay [1] is 75%.
The like results for `Cn1c(-c2cc(N3C[C@H]4CC[C@@H](C3)N4)ncc2Cl)nc2ccccc21` [Example A-185, 2-{5-chloro-2-[(1R,5S)-3,8-diazabicyclo[3.2.1]oct-3-yl]pyridin-4-yl}-1-methyl-1H-benzimidazole] were, in that order, 14 nM, 20 nM and 91%.
The matching figures for `CN(CCS(C)(=O)=O)c1cc(-c2nc3ccccc3n2C)c(Cl)cn1` [Example A-72, 5-chloro-N-methyl-4-(1-methyl-1H-benzimidazol-2-yl)-N-[2-(methylsulfonyl)ethyl]pyridin-2-amine]: 12 nM, 25 nM and 94%.
The matching figures for `COCC(=O)N1CCN(c2ncc(Cl)c(-c3nc4ccccc4n3C)n2)CC1` [Example C-16, 2-{5-chloro-2-[4-(methoxyacetyl)piperazin-1-yl]pyrimidin-4-yl}-1-methyl-1H-benzimidazole]: 12.7 nM, 14 nM and 99%.
For the compound `Cn1c(-c2cc(N3CC(c4ccn[nH]4)C3)ncc2Cl)nc2ccccc21` [Example A-120, 2-{5-chloro-2-[3-(1H-pyrazol-5-yl)azetidin-1-yl]pyridin-4-yl}-1-methyl-1H-benzimidazole], the IC50 in the assay with Gli-Luc/MEF cells (Smo) worked out at 114 nM. Moreover, in assay [1], the inhibition at 0.05 µM turned out to be 62%.
`Cn1c(-c2cc(N3CCOCC(Cc4ncccn4)C3)ncc2Cl)nc2ccccc21` (stereo not shown) [Example A-112, 2-{5-chloro-2-[6-(pyrimidin-2-ylmethyl)-1,4-oxazepan-4-yl]pyridin-4-yl}-1-methyl-1H-benzimidazole]: half-maximal inhibition in the assay with Gli-Luc/MEF cells (Smo) (IC50) was put at 116 nM. Also, in assay [1], the inhibition at 0.05 µM stood at 72% and the IC50 was 159 nM.
In turn, `Cn1c(-c2cc(N3CCC(N4CCCC4=O)CC3)ncc2Cl)nc2ccccc21` [Example A-81, 1-{1-[5-chloro-4-(1-methyl-1H-benzimidazol-2-yl)pyridin-2-yl]piperidin-4-yl}pyrrolidin-2-one] displayed an IC50 in the assay on Gli-Luc/MEF cells (Smo) of 10 nM. In addition, in assay [1], the inhibition at 0.05 µM worked out at 91% and the IC50 came to 24 nM.
For `Cc1cnc(N2CCC(NS(C)(=O)=O)CC2)cc1-c1nc2ccccc2n1C` [Example E-1, N-{1-[5-methyl-4-(1-methyl-1H-benzimidazol-2-yl)pyridin-2-yl]piperidin-4-yl}methanesulfonamide], the IC50 in the assay on Gli-Luc/MEF cells (Smo) was found to be 19.8 nM; in assay [1] it was 19 nM. Moreover, the inhibition at 0.05 µM in assay [1] was 98%.
For `C[C@H]1CN(c2cc(-c3nc4ccccc4n3C)c(Cl)cn2)CCN1S(C)(=O)=O` [Example A-161, 2-{5-chloro-2-[(3S)-3-methyl-4-(methylsulfonyl)piperazin-1-yl]pyridin-4-yl}-1-methyl-1H-benzimidazole], the IC50 in the assay with Gli-Luc/MEF cells (Smo) was found to be 3 nM; in assay [1] it was 9 nM. In assay [1], the inhibition at 0.05 µM was 98%.
Take `CNC(=O)N(C)C1CCN(c2cc(-c3nc4ccccc4n3C)c(Cl)cn2)CC1` [Example A-179, 1-{1-[5-chloro-4-(1-methyl-1H-benzimidazol-2-yl)pyridin-2-yl]piperidin-4-yl}-1,3-dimethylurea]: the midpoint of inhibition in the assay on Gli-Luc/MEF cells (Smo), the IC50, lay at 7 nM. Besides, in assay [1], the inhibition at 0.05 µM turned out to be 97% and the IC50 worked out at 10 nM.
For the compound `Cc1nnc2n1CCN(c1cc(-c3nc4ccccc4n3C)c(Cl)cn1)CC2` [Example A-67, 7-[5-chloro-4-(1-methyl-1H-benzimidazol-2-yl)pyridin-2-yl]-3-methyl-6,7,8,9-tetrahydro-5H-[1,2,4]triazolo[4,3-d][1,4]diazepine], the IC50 with Gli-Luc/MEF cells (Smo) was 26 nM. Moreover, in assay [1], the inhibition at 0.05 µM turned out to be 94% and the IC50 came out at 33 nM.
`Cn1c(-c2cc(N3CCNC(=O)C3)ncc2Cl)nc2ccccc21` [Example A-174, 4-[5-chloro-4-(1-methyl-1H-benzimidazol-2-yl)pyridin-2-yl]piperazin-2-one]: the IC50 in the assay with Gli-Luc/MEF cells (Smo) was found to be 39 nM. Also, in assay [1], the inhibition at 0.05 µM is 86% and the IC50 stood at 39 nM.
As to `CC(=O)NCC1CCCN(c2cc(-c3nc4ccccc4n3C)c(Cl)cn2)C1` (stereo not shown) [Example A-62, N-({1-[5-chloro-4-(1-methyl-1H-benzimidazol-2-yl)pyridin-2-yl]piperidin-3-yl}methyl)acetamide], the IC50 in the assay on Gli-Luc/MEF cells (Smo) turned out to be 21 nM. Moreover, in assay [1], the inhibition at 0.05 µM worked out at 95% and the IC50 was 24 nM.
Regarding `Cn1c(-c2ccnc(N3CCC(N4CCOC4=O)CC3)c2)nc2ccccc21` [Example A-15, 3-{1-[4-(1-methyl-1H-benzimidazol-2-yl)pyridin-2-yl]piperidin-4-yl}-1,3-oxazolidin-2-one], the IC50 with Gli-Luc/MEF cells (Smo) came to 180 nM; in assay [1], 404 nM. Also, the inhibition at 0.05 µM in assay [1] stood at 53%.
As to `Cn1c(-c2cc(N3CCOCC(Cc4cncnc4)C3)ncc2Cl)nc2ccccc21` (stereo not shown) [Example A-46, 2-{5-chloro-2-[6-(pyrimidin-5-ylmethyl)-1,4-oxazepan-4-yl]pyridin-4-yl}-1-methyl-1H-benzimidazole], the IC50 amounted to 9 nM with Gli-Luc/MEF cells (Smo) and 14 nM in assay [1]. Moreover, the inhibition at 0.05 µM in assay [1] is 101%.
Take `Cn1c(-c2cc(N3CCC4(CC3)CNC(=O)O4)ncc2Cl)nc2ccccc21` [Example A-198, 8-[5-chloro-4-(1-methyl-1H-benzimidazol-2-yl)pyridin-2-yl]-1-oxa-3,8-diazaspiro[4.5]decan-2-one]: half-maximal inhibition in the assay with Gli-Luc/MEF cells (Smo) (IC50) required 7 nM. Moreover, in assay [1], the inhibition at 0.05 µM stood at 87% and the IC50 was 9 nM.
The matching figures for `CC(=O)N(C)C1CCN(c2cc(-c3nc4ccccc4n3C)c(Cl)cn2)C1` (stereo not shown) [Example A-183, N-{1-[5-chloro-4-(1-methyl-1H-benzimidazol-2-yl)pyridin-2-yl]pyrrolidin-3-yl}-N-methylacetamide]: 65 nM, 89% and 81 nM.
